{"source": "patent US11278684B2", "about": "“Device and method of delivering particles in the upper respiratory tract” (SERVICES MEDICAUX ARNOLD ET JOAN ZIDULKA INC., priority 2016, dated 2022)", "assay": "two rounds of testing on a patient with ciclesonide administered by the oral inhalation / nasal exhalation method", "format": "in vivo", "conditions": "one patient; two sprays of 200 micrograms aerosolized ciclesonide, four to six oral inhalations each followed by nasal exhalation, morning and evening for two weeks; FIG. 3 device", "excerpt": "The Applicant has performed two rounds of testing on a patient suffering from post-nasal drip and upper laryngeal syndrome with an interval of two weeks between the rounds, each round consisting in administering a therapeutically effective dose of ciclesonide using the method of the present invention. […] In some embodiments, the therapeutically effective dose of ciclesonide for the treatment of upper airway cough syndrome is from 25 to 800 micrograms. Use of ciclesonide for the treatment of upper airway cough syndrome provides the advantage of avoiding fungal infections typically associated with administration of corticosteroid in the posterior nasal region, pharynx and the larynx.\nIn conducting the rounds of testing, the Applicant used the embodiment of the oral delivery device of the present invention shown in FIG. 3. […] It should be noted that in some embodiments, the effective volume is greater or smaller than 375 milliliters. In operation, the patient released two sprays of aerosolized ciclesonide into the oral delivery device, each one of the sprays containing 200 micrograms of ciclesonide, and performed four to six oral inhalations, each one of the inhalations being followed by a nasal exhalation into the ambient atmosphere. Each one of the inhalations drew ambient air into the oral delivery device to sweep in an additional amount of aerosolized ciclesonide. […]", "data": [{"compound": "CC(C)C(=O)OCC(=O)[C@@]12O[C@H](C3CCCCC3)O[C@@H]1C[C@H]1[C@@H]3CCC4=CC(=O)C=C[C@]4(C)[C@H]3[C@@H](O)C[C@@]12C", "note": "[ciclesonide]", "values": [{"measurement": "patient-reported symptoms of upper airway cough syndrome following each round", "result": "significant alleviation of the symptoms"}]}]}
